Measurements taken from PubChem BioAssay (NCI).
Where “and” joins values, the source holds several entries; their conditions need not be identical. Equal entries are not always repeated.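 96-well plates; 48 h exposure; 5 concentrations. Endpoints by linear interpolation between flanking doses. Not reached: highest tested concentration assigned. GI50 marks 50% less growth. TGI denotes the concentration required for complete inhibition of growth.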

Tests used:
Assay in all cases: inhibition of tumour cell growth, NCI panel, 48 h
[1] = test system: DMS 273 small cell lung
[2] = test system: SNB-78 CNS
[3] = test system: DMS 114 small cell lung
[4] = test system: LXFL 529 NSCLC
[5] = test system: KM20L2 colon
[6] = test system: M19-MEL melanoma
[7] = test system: HOP-18 NSCLC
[8] = test system: RXF-631 renal
[9] = test system: MDA-N
[10] = test system: SN12K1 renal

Work on `O=[P+](O)c1cc2ccccc2c2ccccc12` yielded a TGI [1] of over 100 µM, a TGI [2] of over 100 µM and a TGI [3] of over 100 µM. For the same compound, the TGI [4] was over 100 µM, the TGI [5] was over 100 µM and the TGI [6] was over 100 µM. It also gave a TGI [7] of over 100 µM.
For `CC(=O)OC(C)(C)/C=C/C(=O)[C@](C)(O)[C@H]1[C@H](O)C[C@@]2(C)[C@@H]3CC=C4[C@@H](C[C@H](O)C(=O)C4(C)C)[C@]3(CO)C(=O)C[C@]12C`, the GI50 [1] was 0.324 µM, the TGI [1] was 0.771 µM and the GI50 [2] was 0.269 µM. For the same compound, the TGI [2] was 0.983 µM and 3.92 µM, the GI50 [3] was 0.248 µM and the TGI [3] was 15.3 µM. The GI50 [4] was 0.09 µM, the TGI [4] was 6.62 µM and the GI50 [6] was 0.298 µM. For the same compound, the TGI [6] was 29.9 µM, the GI50 [7] was 0.216 µM and the TGI [7] was 0.646 µM and 1.32 µM.
`CC1=C(C(=O)Nc2ccc([N+](=O)[O-])cc2)C(c2ccccc2O)C(C(=O)Nc2ccc([N+](=O)[O-])cc2)=C(C)N1` gave a TGI [1] of 47.1 µM, a TGI [2] of 91.8 µM and a TGI [3] of 44.8 µM. For the same compound, the TGI [4] was 48.7 µM, the TGI [5] was 35.8 µM and the TGI [8] was 36.6 µM. It also gave a TGI [6] of 64.4 µM.
Work on `COc1ccc2nc3cc([N+](=O)[O-])ccc3c(NCCCN(CCO)CCO)c2c1` yielded a GI50 [9] of 3.47 µM and a TGI [9] of 8.93 µM.
In the case of `Cc1ccc(-c2cc(=O)c3cc(C)c(C)c(C(=O)O)c3o2)cc1`, the TGI [1] is reported as over 100 µM, the TGI [2] is reported as over 100 µM and the TGI [3] is reported as over 100 µM. The TGI [4] was over 100 µM, the TGI [5] was over 100 µM and the TGI [8] was over 100 µM. The TGI [6] was over 100 µM.
`CC(C)[NH-].CC(C)[NH-].O.O.[Cl][Pt+2][Cl]` showed a GI50 [2] of 54.5 µM, a TGI [2] of 375 µM and a GI50 [3] of 10.9 µM. It also gave a TGI [3] of 44.1 µM, a GI50 [5] of 15.2 µM and a TGI [5] of 141 µM. The GI50 [6] was 21.3 µM, the TGI [6] was 77.1 µM and the GI50 [7] was 60.5 µM. It also gave a TGI [7] of 337 µM, a GI50 [10] of 31.1 µM and a TGI [10] of 150 µM. It also gave a GI50 [9] of 17.4 µM and a TGI [9] of 106 µM.
With `NC(=O)C(=Cc1ccc(CP(=O)(O)O)cc1)C(N)=O` the TGI [1] was over 100 µM, the TGI [2] was over 100 µM and the TGI [3] was over 100 µM. For the same compound, the TGI [4] was over 100 µM, the TGI [5] was over 100 µM and the TGI [6] was over 100 µM. It also gave a TGI [7] of over 100 µM.
`O=C1C2CC=CCC2C(=O)C12CCc1ccccc12` (centres undefined) was tested, and the TGI [1] was over 100 µM, the TGI [2] was over 100 µM and the TGI [4] was over 100 µM. For the same compound, the TGI [5] was over 100 µM, the TGI [6] was over 100 µM and the TGI [7] was over 100 µM.
`Clc1ccc(C(c2ccc(Cl)cc2)N2CCNCC2)cc1` gave a TGI [9] of 3.62 µM.
`CN(C(=O)C12C3(C(=O)C(C)(C)C)C4C5(C#N)C3C1(C(=O)C(C)(C)C)C5C42C(=O)C(C)(C)C)C(C)(C)C` (centres undefined) showed a TGI [1] of over 50 µM, a TGI [2] of over 50 µM and a TGI [3] of over 50 µM. For the same compound, the TGI [4] was over 50 µM, the TGI [5] was over 50 µM and the TGI [8] was over 50 µM. It also gave a TGI [6] of over 50 µM.
In the case of `COC1=C2C[C@H](O)C(C)C[C@@]2(OC)OC1=O` (some centres undefined), the TGI [1] is reported as over 100 µM, the TGI [2] is reported as over 100 µM and the TGI [4] is reported as over 100 µM. For the same compound, the TGI [8] was over 100 µM and the TGI [6] was over 100 µM.
Compound `O=C(O)C1C(=O)Oc2c(cccc2[N+](=O)[O-])C1O` (centres undefined) has a TGI [9] of over 100 µM.
`O=c1nc(NC(c2ccccc2)(c2ccccc2)c2ccccc2)ccn1CCO` was tested, and the TGI [2] was over 100 µM, the TGI [3] was over 100 µM and the TGI [4] was over 100 µM. For the same compound, the TGI [5] was over 100 µM and the TGI [7] was over 100 µM.
Compound `CCCCCCCC(=O)OCC1OC(n2cc(F)c(=O)[nH]c2=O)C(NC(=O)OCc2ccccc2)C(O)C1O` (centres undefined) has a TGI [1] of over 100 µM, a TGI [2] of over 100 µM and a TGI [3] of over 100 µM. The TGI [4] was over 100 µM, the TGI [5] was over 100 µM and the TGI [6] was over 100 µM.
For `O=C1[C@H]2ON(c3ccccc3)C(c3ccccc3F)[C@H]2C(=O)N1c1ccc(Cc2ccc(N3C(=O)[C@@H]4ON(c5ccccc5)C(c5ccccc5F)[C@@H]4C3=O)cc2)cc1` (some centres undefined), the TGI [1] was over 100 µM, the TGI [2] was over 100 µM and the TGI [3] was over 100 µM. It also gave a TGI [4] of over 100 µM, a TGI [5] of over 100 µM and a TGI [8] of over 100 µM. It also gave a TGI [6] of over 100 µM and a TGI [7] of over 100 µM.
`CCOc1ccccc1N1C(=O)C(=O)C(c2nc3ccccc3o2)/C(=N\N)C1=O` (centres undefined) gave a TGI [1] of over 100 µM, a TGI [2] of over 100 µM and a TGI [3] of over 100 µM. For the same compound, the TGI [4] was over 100 µM, the TGI [5] was over 100 µM and the TGI [6] was over 100 µM.
With `COC(=O)c1ccc(NC(=O)c2cc(OC)c(OC)c(OC)c2)cc1` the TGI [1] was over 100 µM, the TGI [3] was 0.706 µM and the TGI [4] was over 100 µM. For the same compound, the TGI [5] was over 100 µM, the TGI [6] was over 100 µM and the TGI [7] was over 100 µM.
Work on `O=C(NCCCCCCNC(=O)n1cc(F)c(=O)[nH]c1=O)NCCCOCCOCCOCCOCCOCCOCCOCCOCCOCCOCCOCCOCCOCCOCCOCCOCCOCCOCCOCCOCCOCCCNC(=O)C(O)C(O)C(OC1OC(CO)C(O)C(O)C1O)C(O)CO` (centres undefined) yielded a TGI [1] of over 100 µM, a TGI [2] of over 100 µM and a TGI [3] of over 100 µM. For the same compound, the TGI [5] was over 100 µM, the TGI [6] was over 100 µM and the TGI [7] was over 100 µM. The TGI [10] was over 100 µM and the TGI [9] was over 100 µM.
`OC(C1CO1)C(O)C1CO1` (centres undefined) showed a TGI [1] of 76.9 µM, a TGI [2] of 150 µM and a TGI [3] of 150 µM. It also gave a TGI [5] of 150 µM, a TGI [6] of 150 µM and a TGI [7] of 150 µM. The TGI [10] was 150 µM, the GI50 [9] was 92.2 µM and the TGI [9] was 134 µM and 284 µM.
`CCOC(=O)[C@H]1CSC[C@@H](C(=O)OC)N1` gave a TGI [1] of over 100 µM, a TGI [3] of over 100 µM and a TGI [4] of over 100 µM. It also gave a TGI [6] of over 100 µM.
`C/C(CC(=O)Nc1ccc(Cl)cc1)=N\NC(=O)C[n+]1ccccc1` was tested, and the TGI [1] was over 100 µM, the TGI [2] was over 100 µM and the TGI [3] was over 100 µM. For the same compound, the TGI [4] was over 100 µM, the TGI [5] was over 100 µM and the TGI [8] was over 100 µM.
